Where two headings read alike, the source gives them in different places.
What was measured:
heparinized whole blood = details: for ability to preserve specimen glucose (in words): 10 mmol/L, 8 hours; for Decrease (glucose loss) / Glucose at 8 hours / Glucose at 0 Hours: agent at 10 mmol/L; for Decrease (glucose loss): 0 to 8 hours, no additions 41%; for Glucose at 8 hours: 8 hours at room temperature; for Glucose at 8 hours / Glucose at 0 Hours: mean(SD); for IC50: read-out: concentration that reduced glycolytic loss by half, 8 hours incubation at room temperature
From the text: Whole blood specimens collected in tubes containing sodium heparin as anticoagulant were obtained from healthy adult volunteers or from adult diabetic patients visiting an outpatient clinic, after obtaining informed consent. Specimens were employed for experimentation within one hour of collection. In a few experiments, whole blood heparinized specimens arriving at the clinical laboratory for analysis for glucose and other common analytes were mixed, and aliquots removed for experimental purposes. These studies were conducted in accordance with a protocol approved by the Human Studies Committee of Washington University.
Aliquots of heparinized whole blood (0.96 mL) were pipetted into microfuge tubes containing 0.040 mL of saline or anti-glycolytic agent in saline. Anti-glycolytic agents were prepared as 250 mmol/L stock solutions within one hour of use. At various times plasma was prepared from incubations by centrifugation at 8000×G for two minutes; plasma was decanted to 12×75 mm tubes and stored frozen until analysis. All incubations of whole blood were conducted at room temperature (23°) on a rotating table shaker, which kept the cells in dispersed suspension. d,1-glyceraldehyde, methylgloxal, d-glyceraldehyde, glycolaldehyde and dihydroxyacetone were obtained from Sigma Chem Co. (St. Louis, Mo.). 1-glyceraldehyde was obtained from Fisher Scientific (Pittsburgh, Pa.).
Glucose analyses were routinely performed on a Cobas-MIRA analyzer (Roche Diagnostic Systems, Montclair, N.J.), employing reagents based on glucose oxidase, manufactured by Sigma Diagnostics (St. Louis, Mo.). In some experiments, glucose and many other common laboratory analyses were performed on a Vitros 250 Analyzer (Ortho-Clinical Diagnostics, Rochester, N.Y.), a Hitachi 747 Analyzer (Boehringer-Mannheim Corp., Indianapolis, Ind.) and a RxL Analyzer (Dade Behring, Inc. Newark, Del.).
Whole heparinized blood was incubated for 0-8 hours in the presence of 10 mmol/L d,1-GA, and the glycolytic loss of glucose followed over time (FIG. 1).
Whole heparinized blood was incubated for 8 hours in the presence of 0-10 mmol/L d,1-GA (FIG. 2).
Several compounds related biochemically or structurally to d,1-GA were tested for ability to preserve specimen glucose; incubations without inhibitor and with d,1-GA were included for comparison (Table I). All compounds were tested at a final concentration of 10 mmol/L, and incubations were conducted at 0 hours and 8 hours for each compound. […] To test this possibility, an experiment varying the concentration of 1-GA was performed in analogy with the earlier experiment varying the d,1-GA concentration (see above).

[1] = system: erythrocyte potassium homeostasis; assay: Effect on erythrocyte potassium homeostasis (plasma potassium in whole blood incubations); assay type: cell-based, human; details: 10 mmol/L d,1-GA; room temperature; 4.0±0 mmol/L at 0 hours
Method: 1-glyceraldehyde was obtained from Fisher Scientific (Pittsburgh, Pa.).
The time course of potassium concentration changes was followed for 8 hours in whole blood incubations under three conditions; 1) incubation at room temperature (without additions), 2) incubation at room temperature with 10 mmol/L d,1-GA, and 3) incubation at 4° C. (without additions). In room temperature incubations without additive, potassium decreased modestly from 4.0±0 mmol/L at 0 hours to 3.5±0.1 mmol/L at 8 hours. Incubation for 8 hours in the presence of d,1-GA caused an increase of similar magnitude (to 4.5±0 mmol/L). In contrast, incubation at 4° C., which has been advocated as an effective way to prevent glucose loss for short periods (Lin et al., Clin. Chem., 22:2031-3 (1976)), caused an increase to 6.0±0.1 mmol/L.

[2] = system: patient whole blood specimens; assay: Efficacy of d,1-GA in patient specimens: initial glucose vs glucose after 8 hours incubation; assay type: cell-based, human; details: 10 mmol/L d,1-GA
From the text: Results are presented by plotting initial glucose concentration against glucose concentrations either in the presence or absence of d,1-GA (FIG. 3).

IC50 (heparinized whole blood) [µM]	plasma potassium at 8 hours [1] [mmol/L]	Structure (SMILES)	ability to preserve specimen glucose (in words) (heparinized whole blood)	Decrease (glucose loss) (heparinized whole blood) [%]	Glucose at 8 hours (heparinized whole blood)	Glucose at 0 Hours (heparinized whole blood)	hemolysis (heparinized whole blood)	elimination of glycolytic loss (in words) (heparinized whole blood; 2.5 mmol/L 1-GA, 8 hour incubation, data not shown)	reduction of the extent of glucose loss compared with absence of d,1-GA [2]	residual glucose at 8 hours (heparinized whole blood; 5 mmol/L d,1-GA, start 4.8±0.1 mmol/L, FIG. 2) [mmol/L]	loss of glucose at 8 hours (heparinized whole blood; 10 mmol/L d,1-GA, FIG. 1, without additive 38% lost) [%]	hemolysis (heparinized whole blood; whole blood incubation with additive)
–	–	CC(=O)C=O [Methylglyoxal, reference compound]	ineffective	43	2.6(0.2) mmol/L	4.5(1.0) mmol/L	–	–	–	–	–	–
–	–	O=CCO [Glycolaldehyde, reference compound]	–	52	2.3(0.1) mmol/L	4.8(0.1) mmol/L	–	–	–	–	–	–
~650	–	O=C[C@@H](O)CO [1-GA, 1-glyceraldehyde]	completely prevented	0	4.8(0.1) mmol/L	4.8(0.1) mmol/L	does not cause hemolysis	nearly completely effective	–	–	–	–
~900	4.5 ± 0	O=CC(O)CO (stereo not shown) [d,1-GA, d,1-glyceraldehyde]	–	0	4.8(0.1) mmol/L	4.7(0.2) mmol/L	–	–	more than 7 fold	4.6 ± 0.3	2	did not promote visible hemolysis
–	–	O=C(O)C(O)CO (stereo not shown) [Glyceric Acid, reference compound]	–	42	2.7(0.2) mmol/L	4.7(0.1) mmol/L	–	–	–	–	–	–
–	–	O=C(CO)[C@@H](O)[C@H](O)[C@@H](O)CO [L-Sorbose, reference compound]	not effective	38	3.1(0) mmol/L	5.0(0.1) mmol/L	–	–	–	–	–	–
–	–	O=C[C@H](O)CO [d-GA, d-glyceraldehyde]	only partly effective	17	3.9(0.1) mmol/L	4.7(0.1) mmol/L	–	–	–	–	–	–

From patent US6632844B1, “Methods and compositions for preserving glucose level in blood specimens” (Washington University, priority 2000, dated 2003)
